From US8815007B2, “Alkoxylated polyamines and polyetheramine polyol compositions for foam control” (priority 2007, dated 2014)

Assay: Equilibrium surface tension, double-probe bubble tensiometer
Type: physicochemical
Details: one bubble per second
Protocol: The antifoaming properties of the above compositions were evaluated using the blender foam test as described below. Surface tensions were determined using a […] OC-6000 double-probe bubble tensiometer. Equilibrium surface tensions were determined on 0.1% active solutions in deionized water at 25° C. by using a bubble rate of one bubble per second. […] Surface tension measurements were carried out using a Sensation QC-6000 double-probe bubble tensiometer from the Sensation Division of Chem-Dyne Research Corp. of Mesa, Ariz.

Surface Tension (Table 2, 0.1% active solutions in deionized water at 25° C.): 36.2 mN/m
Surface Tension (Table 3, 0.1% active solutions in deionized water at 25 deg C.): 36.2 mN/m
Substance: diethylenetriamine/2 mol 1-epoxyoctane adduct [Example 2]
